Among the data in ChEMBL document CHEMBL5247665, “Improved synthesis and anticancer activity of a potent neuronal nitric oxide synthase inhibitor” (Bioorg Med Chem Lett, 2023) are Activity values, retold here.

The structures appear in SMILES notation.

This data set is described as follows: Toxicity in mouse at 10 mg/kg measured after 21 days. To be noted: in vivo, 504 h, time 21 day. The format is organism-based.

Regarding `CNCc1cccc(CCc2ccc3c(C)cc(N)nc3c2)c1.Cl.Cl`, the Activity result is recorded as “Non-Toxic”.
